Results: article PMC3826128 (Marine Drugs, 2013)
Where two headings read alike, the source gives them in different places.

Assays:
[1] = molecular target: T1, Leishmania donovani DNA topoisomerase IB enzyme (LdTopIB) (Leishmania donovani, UniProt A0A3Q8IHS4+Q8WQM6); experiment: Inhibition of the relaxation activity of recombinant LdTopIB (plasmid DNA relaxation assay); format: biochemical; conditions: 30 min at 37 °C, 1.56–100 µM
Method: (§1) One unit of recombinant LdTopIB was assayed in a plasmid DNA relaxation assay for 30 min at 37 °C in the presence of 1.56–100 µM of either acids 1 or 2. Reaction products were resolved in agarose gel and subsequently visualized by ethidium bromide staining. The relative position of the negatively supercoiled DNA substrate is indicated by Sc, R is the relaxed DNA, whereas the ladder of relaxed DNA topoisomer bands is shown in between. Reactions were stopped with a mixture of 1% SDS and 6.1 µg of proteinase K. Lane 1 contains 0.5 µg of pSK plasmid DNA and lane 2, indicated by a 0, is 10% DMSO.
(§2) The LdTopIB and hTopIB inhibitory bioassays were performed as previously described. A brief description of the experimental procedure can be found as the header of Figure 1 and Figure 3.

[2] = molecular target: T2, human topoisomerase IB enzyme (hTopIB) (Homo sapiens, UniProt P11387); experiment: Inhibition of the relaxation activity of hTopIB (plasmid DNA relaxation assay); format: biochemical; conditions: 30 min at 37 °C, 1–100 µM
T2 sequence (P11387 1-765): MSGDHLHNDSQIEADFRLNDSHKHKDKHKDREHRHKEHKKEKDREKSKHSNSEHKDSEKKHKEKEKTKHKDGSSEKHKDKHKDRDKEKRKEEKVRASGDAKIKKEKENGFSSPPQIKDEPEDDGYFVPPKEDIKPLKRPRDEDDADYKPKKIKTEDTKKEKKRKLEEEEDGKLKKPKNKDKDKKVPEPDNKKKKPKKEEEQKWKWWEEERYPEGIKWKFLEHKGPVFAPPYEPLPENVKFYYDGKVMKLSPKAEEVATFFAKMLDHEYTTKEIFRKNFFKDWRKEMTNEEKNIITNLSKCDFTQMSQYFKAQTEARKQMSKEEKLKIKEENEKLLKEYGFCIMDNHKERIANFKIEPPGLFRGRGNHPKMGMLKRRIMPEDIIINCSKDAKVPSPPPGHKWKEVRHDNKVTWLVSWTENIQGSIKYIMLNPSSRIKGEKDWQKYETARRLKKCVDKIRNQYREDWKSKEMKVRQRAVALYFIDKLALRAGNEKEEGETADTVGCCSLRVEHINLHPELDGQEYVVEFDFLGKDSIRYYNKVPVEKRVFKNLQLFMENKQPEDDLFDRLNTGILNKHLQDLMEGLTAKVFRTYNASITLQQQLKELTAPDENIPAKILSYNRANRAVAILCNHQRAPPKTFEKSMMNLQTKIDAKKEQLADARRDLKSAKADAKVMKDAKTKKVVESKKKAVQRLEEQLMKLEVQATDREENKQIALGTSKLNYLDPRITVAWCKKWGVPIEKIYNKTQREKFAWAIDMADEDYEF
Method: as §1, with “hTopIB” for “of recombinant LdTopIB”, “1–100” for “1.56–100”
as §2

[3] = test system: LdTopIB CPT^R (LdTopIL^1−561/S175end); experiment: Inhibition of CPT-resistant doubly truncated LdTopIB; format: biochemical, Leishmania donovani; conditions: 100 µM, 4 min at 25 °C, judged by supercoiled DNA band
Method: Figure 4 Methoxylated fatty acids inhibit LdTopIB by a CPT-independent mechanism. […] Samples were incubated for 4 min at 25 °C, stopped with 1% SDS and digested for one extra hour at 37 °C in the presence of 1 mg/mL proteinase K. DNA was extracted with one volume of phenol-chloroform and samples were run on a 1% agarose gel containing ethidium bromide to a final concentration of 40 μg/mL in order to separate supercoiled and relaxed DNA. The nicked band corresponds to the stabilized cleavage complexes. The results are representative of three independent trials.

[4] = test system: L. infantum promastigotes; experiment: Toxicity towards L. infantum promastigotes; format: cell-based, Leishmania infantum
Source text: (§3) The experimental procedures employed to assess the toxicity of acids 1 and 2 towards L. infantum and L. donovani are the same as the ones previously described. CPT was used as the control drug.

[5] = test system: Murine Macrophages BALB/c; experiment: Toxicity towards murine macrophages; format: cell-based; conditions: Mus musculus, Macrophage
Source text: Murine macrophages were chosen as reference for this study since Leishmania spp. normally infects macrophages and in macrophages is where Leishmania promastigotes are transformed into Leishmania amastigotes. […] The experimental procedures employed to assess the toxicity of acids 1 and 2 towards L. infantum and L. donovani are the same as the ones previously described. CPT was used as the control drug.

[6] = test system: L. donovani promastigotes; experiment: Toxicity towards L. donovani promastigotes; format: cell-based; conditions: Leishmania donovani
Source text: as §3

[7] = molecular target: T1, Leishmania donovani DNA topoisomerase IB enzyme (LdTopIB); conditions: earlier work of the group; cited from earlier work
[8] = relaxation activity, read-out: LdTopIB EC50

T1 sequence (A0A3Q8IHS4 entry or part of it): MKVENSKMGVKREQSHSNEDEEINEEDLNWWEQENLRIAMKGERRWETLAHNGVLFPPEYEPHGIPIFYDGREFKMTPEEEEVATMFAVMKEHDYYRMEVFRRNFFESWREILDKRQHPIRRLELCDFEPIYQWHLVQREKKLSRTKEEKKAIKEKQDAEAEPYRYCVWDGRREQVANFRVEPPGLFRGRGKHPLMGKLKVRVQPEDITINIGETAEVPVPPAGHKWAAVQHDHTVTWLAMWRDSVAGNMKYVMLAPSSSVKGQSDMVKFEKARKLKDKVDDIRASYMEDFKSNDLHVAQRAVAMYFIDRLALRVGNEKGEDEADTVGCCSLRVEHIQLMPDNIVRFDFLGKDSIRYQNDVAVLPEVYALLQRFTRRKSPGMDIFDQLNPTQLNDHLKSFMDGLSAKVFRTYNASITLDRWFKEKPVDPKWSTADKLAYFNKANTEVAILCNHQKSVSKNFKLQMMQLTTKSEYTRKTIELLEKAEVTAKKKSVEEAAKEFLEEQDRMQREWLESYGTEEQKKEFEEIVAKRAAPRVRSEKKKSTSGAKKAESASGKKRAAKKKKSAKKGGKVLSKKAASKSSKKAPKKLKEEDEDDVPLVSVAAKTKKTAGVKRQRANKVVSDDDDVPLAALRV
T1 sequence (Q8WQM6 entry or part of it): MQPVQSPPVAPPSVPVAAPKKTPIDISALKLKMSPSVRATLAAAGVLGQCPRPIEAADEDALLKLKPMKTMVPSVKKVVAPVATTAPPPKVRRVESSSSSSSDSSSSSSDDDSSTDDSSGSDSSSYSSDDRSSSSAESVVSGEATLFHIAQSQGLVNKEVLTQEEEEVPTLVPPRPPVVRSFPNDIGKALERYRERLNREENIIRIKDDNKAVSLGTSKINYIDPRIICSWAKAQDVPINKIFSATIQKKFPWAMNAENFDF

SMILES	EC50 [1, 8]	EC50 [2]	Inhibition of LdTopIB CPT^R [3]	EC50 [4]	EC50 ([4]; Leishmania infantum)	IC50 [5]	IC50 ([6]; footnote a, in the column L. infantum EC50, read-out: IC50 against L. donovani promastigotes)	EC50 ([6]; promastigotes)	EC50 [7]	EC50 ([1]; LdTopIB EC50, relaxation activity)
CCCCCCCCCCC#CCCC#CCCC(OC)C(=O)O (racemic) [compound 2, (±)-2-methoxy-5,9-eicosadiynoic acid]	22 ± 1 µM	> 100 µM	completely inhibit	240 ± 10 µM	240 to 260 µM	90 ± 20 µM				
CCCCCCCCCCCCCC#CCCCC(OC)C(=O)O (racemic) [compound 12, (±)-2-methoxy-6-icosynoic acid]	53 ± 3 µM	> 100 µM				> 100 µM	100 ± 10 µM	100 µM		
CCCCCCCCCCC#CCCCC(OC)C(=O)O (racemic) [(±)-2-OMe-6-heptadecynoic acid]									17 ± 1 µM	
CCCCCCCCCC/C=C\CC/C=C\CCC(OC)C(=O)O (racemic) [compound 1, (5Z,9Z)-(±)-2-methoxy-5,9-eicosadienoic acid]	31 ± 2 µM	> 100 µM	completely inhibit	260 ± 20 µM	240 to 260 µM	110 ± 10 µM				
CC[C@@]1(O)C(=O)OCc2c1cc1n(c2=O)Cc2cc3ccccc3nc2-1 [CPT, Camptothecin, reference compound]			not able to inhibit		1.1 ± 0.1 µM	0.6 ± 0.1 µM				0.7 ± 0.1 µM
CCCCCCCCCC/C=C\CCCC(OC)C(=O)O (racemic) [(±)-2-methoxy-6Z-heptadecenoic acid]									41 ± 6 µM	
